# Data as given in patent US11331283B2, “Pharmaceutical compositions comprising cinacalcet hydrochloride and one or more binders” (UNICHEM LABORATORIES LTD, priority 2017, dated 2022).
# Test: Particle size distribution of micronized cinacalcet hydrochloride by Malvern Mastersizer
# Type: physicochemical
# Conditions: particle size after jet milling
# Method: Micronization of cinacalcet hydrochloride was carried out by Jet Milling. Particle size of micronized cinacalcet hydrochloride was measured with Malvern Mastersizer.
D10 [μm],D50 [μm],D90 [μm],SMILES
≤ 5,≤ 10,≤ 20,"C[C@@H](NCCCc1cccc(C(F)(F)F)c1)c1cccc2ccccc12.Cl [Micronized cinacalcet hydrochloride, N-[1-(R)-(−)-(1-naphthyl)ethyl]-3-[3(trifluoromethyl)phenyl]-1-aminopropane hydrochloride]"
2.66,6.55,13.4,"C[C@@H](NCCCc1cccc(C(F)(F)F)c1)c1cccc2ccccc12.Cl [Batch No 70001, N-[1-(R)-(−)-(1-naphthyl)ethyl]-3-[3(trifluoromethyl)phenyl]-1-aminopropane hydrochloride]"
4.06,9.58,18.8,"C[C@@H](NCCCc1cccc(C(F)(F)F)c1)c1cccc2ccccc12.Cl [Batch No 60002, N-[1-(R)-(−)-(1-naphthyl)ethyl]-3-[3(trifluoromethyl)phenyl]-1-aminopropane hydrochloride]"
2.35,6.81,15.4,"C[C@@H](NCCCc1cccc(C(F)(F)F)c1)c1cccc2ccccc12.Cl [Batch No 70002, N-[1-(R)-(−)-(1-naphthyl)ethyl]-3-[3(trifluoromethyl)phenyl]-1-aminopropane hydrochloride]"
